What was measured:
[1] = target: BTK wild-type kinase (Homo sapiens (Human), UniProt Q06187); assay: BTK kinase activity inhibition test in vitro (Caliper EZ Reader); assay type: biochemical
Summary of the method: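 Compound (10 mM DMSO stock) preincubated with kinase 10 min at room temperature, then ATP plus kinase substrate 2 added, 10 min reaction at room temperature before stop. Substrate conversion read by Caliper mobility shift; inhibition normalised to no-enzyme and no-compound controls, IC50 by variable-slope log(inhibitor) fit.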

[2] = system: BT474 cell proliferation; assay: In vitro cell proliferation inhibitory activity test (CTG), BT474; assay type: cell-based
Description: (§1) Test Example 4: In Vitro Cell Proliferation Inhibitory Activity Test
(§2) Cells were cultured in 1640 medium, added with 10% inactivated FBS and 1% double antibiotics, and cultured at 37° C. and 5% CO2.
(§3) (1) Cells were routinely cultured until the cell density was 80%-90%, and the cells were harvested when their number reached the requirement.
(§4) (2) Cells were resuspended with corresponding culture medium, counted, and prepared into cell suspension at appropriate density.
(§5) (3) The cell suspension was added to a 96-well plate, 100 µL per well.
(§6) (4) Cells were cultured overnight in a 37° C., 5% CO2 incubator.
(§7) (1) The compounds to be tested were diluted with DMSO to make a stock solution with a final concentration of 20 mM for later use.
(§8) (2) The stock solution was diluted 10 times from 20 mM to 2 mM with DMSO, and then diluted 3 times from 2 mM to 9 concentrations.
(§9) (3) The blank control wells were cells plus 0.5% DMSO, as high-reading control wells.
(§10) (4) Wells with no cells and only medium were used as low-reading control wells.
(§11) 4: Cell Treatment With Compound
(1) 24 h after the cells were plated, the compounds acted alone, and 99 µL of growth medium was added to each well, followed by 1 µL of the compound prepared in step 3. […]
(§12) (3) The chemiluminescent signal value was read with the Envision instrument.
IC50 was calculated by using GraphPad Prism 8 software. […]

[3] = system: TMD8 cell proliferation; assay: In vitro cell proliferation inhibitory activity test (CTG), TMD8; assay type: cell-based, human; conditions: TMD8 cells, 72 h
Description: as §1, §2, §3, §4, §5, §6, §7, §8, §9, §10, §11
(1) 24 h after the cells were plated, the compounds acted alone, and 99 µL of growth medium was added to each well, followed by 1 µL of the compound prepared in step 3. The plate was shaken gently to mix uniformly, and then placed in a 37° C., 5% CO2 incubator.
(2) The cell plate was placed in an incubator for 72 h.
5: Detection by CTG Method
(1) The cell plate to be tested was placed at room temperature for 30 min, and 100 µL of medium was discarded from each well.
(2) 100 µL of CTG reagent (CelltiterGlo kit) was added to each well, placed on a fast shaker for 2 min, and stood at room temperature in the dark for 30 min.
as §12
IC50 was calculated by using GraphPad Prism 8 software. The IC50 (half inhibitory concentration) of the compound was derived using the following nonlinear fitting formula, and the results are shown in the following table: […]

Sequence of BTK wild-type kinase (Q06187 whole entry): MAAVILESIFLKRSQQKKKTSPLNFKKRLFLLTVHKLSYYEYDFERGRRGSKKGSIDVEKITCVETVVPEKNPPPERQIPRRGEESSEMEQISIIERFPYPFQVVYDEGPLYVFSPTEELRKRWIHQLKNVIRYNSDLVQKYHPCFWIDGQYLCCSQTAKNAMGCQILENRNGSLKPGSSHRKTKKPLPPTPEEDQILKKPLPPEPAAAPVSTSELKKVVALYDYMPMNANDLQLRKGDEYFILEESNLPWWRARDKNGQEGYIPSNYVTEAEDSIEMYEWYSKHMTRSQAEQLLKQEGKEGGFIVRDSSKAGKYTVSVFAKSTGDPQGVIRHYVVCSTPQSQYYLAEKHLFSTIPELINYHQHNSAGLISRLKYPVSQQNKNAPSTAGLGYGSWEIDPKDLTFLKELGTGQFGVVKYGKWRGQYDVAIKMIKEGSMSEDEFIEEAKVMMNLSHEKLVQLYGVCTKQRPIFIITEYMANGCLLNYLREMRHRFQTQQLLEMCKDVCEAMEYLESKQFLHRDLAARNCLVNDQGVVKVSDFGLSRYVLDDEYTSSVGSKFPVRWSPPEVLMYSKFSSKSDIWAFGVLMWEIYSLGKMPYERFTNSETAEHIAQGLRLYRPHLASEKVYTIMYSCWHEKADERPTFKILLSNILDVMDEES

IC50 [1]: 20 to 100 nM
IC50 [2]: 2180 nM
SMILES: Nc1nccn2c(C3CCC(CO)OC3)nc(-c3ccc(C(F)(F)c4ccccc4)cc3)c12 (single isomer, unassigned) [Compound 111-P2]
IC50 [3]: 275 nM

— patent US20230364079A1, “COMPOUND AS BRAIN-PERMEABLE BTK OR HER2 INHIBITOR, PREPARATION METHOD THEREFOR, AND USE THEREOF” (CHENGDU HYPERWAY PHARMACEUTICALS CO., LTD., priority 2020, published 2023)
